In patent publication US20230265065A1 (WEST VIRGINIA UNIVERSITY BOARD OF GOVERNORS ON BEHALF OF …, priority 2020, published 2023):
“Also recorded” adds a separate entry of the source.

What was measured:
LAR [1] = target: T1, LAR (Homo sapiens, UniProt P10586); assay: Standard phosphatase assay (DiFMUP) with LAR, pH 6.5, 22° C.
T1 sequence (P10586 1352-1607): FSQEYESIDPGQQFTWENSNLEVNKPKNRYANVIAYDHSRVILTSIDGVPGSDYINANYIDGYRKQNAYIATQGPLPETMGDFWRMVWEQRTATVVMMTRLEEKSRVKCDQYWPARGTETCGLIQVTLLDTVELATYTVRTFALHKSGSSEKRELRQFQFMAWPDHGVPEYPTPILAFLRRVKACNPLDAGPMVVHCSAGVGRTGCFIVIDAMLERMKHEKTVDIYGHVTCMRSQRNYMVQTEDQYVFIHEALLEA
Procedure: Enzyme activity assays are performed in black 96-well plates containing a total volume of 100 μL in each well. […] Prior to each assay, the enzyme is activated by incubating in Bis-Tris buffer (50 mM Bis-Tris pH 6.5, 100 mM NaCl, 0.01% Brij 35, 1 mM EDTA) with 5 μL of 100 mM TCEP on ice for 30 min. Buffer, enzyme, and either a DMSO control or the compound of interest are added to each well of the 96-well plate and incubated for 30 min at room temperature. After this 30-min preincubation period, the substrate DiFMUP is added to initiate the reaction. The observed fluorescence resulting from the hydrolysis of DiFMUP is measured every 60 s for 30 min in a SpectraMax M5 plate reader with excitation and emission wavelengths of 350 and 455 nm, respectively.
Assays to investigate time-dependent inhibition are performed as described in the initial inhibitory screen assays section with slight modifications. Buffer and enzyme are initially added to each well, followed by sequential addition of inhibitor starting from the longest incubation time to the shortest.
Assays to determine kobs values were performed as described in the Initial inhibitory screen assays section above with slight modification. Buffer, inhibitor and DMSO were added to each well as appropriate. Enzyme was then added to each well and allowed to incubate for the desired time, followed by addition of DiFMUP to initiate the assay.

PTPRδ [2] = target: T2, PTPRδ (Homo sapiens, UniProt P23468); assay: Preliminary LAR-PTP inhibition assay at pH 8; format: biochemical; conditions: pH 8, 100 μM compound, 30 min preincubation
T2 sequence (P23468 1357-1612): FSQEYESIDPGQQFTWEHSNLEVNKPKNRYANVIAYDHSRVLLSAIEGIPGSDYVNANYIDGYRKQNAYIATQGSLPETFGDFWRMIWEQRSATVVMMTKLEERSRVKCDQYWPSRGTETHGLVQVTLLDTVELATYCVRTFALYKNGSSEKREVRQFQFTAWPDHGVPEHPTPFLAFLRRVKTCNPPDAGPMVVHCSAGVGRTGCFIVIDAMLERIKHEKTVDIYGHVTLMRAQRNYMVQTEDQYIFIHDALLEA
Procedure: The illudalogs of this invention show inhibitory activity against LAR-PTPs in preliminary assays at pH 6.5 and pH 8 (FIG. 9). In all assays, 100 μM of compound was incubated with enzyme for 30 min prior to the assay. […] This apparent pH-dependence is consistent with the postulated two-stage binding mechanism and will be investigated further. There is some variation in potency and selectivity across the analogues, although these preliminary assays are not precise enough to support quantitative conclusions.

PTPRδ [3] = target: T2, PTPRδ; assay: PTP panel inhibition, PTPRδ; format: biochemical; parameters: We maintain a library of PTP catalytic domains
SHP2 = target: T3, SHP2 (Homo sapiens, UniProt Q06124); assay: PTP panel screen, SHP2; format: biochemical; conditions: 250 nM
T3 construct: We maintain a library of PTP catalytic domains
T3 sequence (Q06124 247-517): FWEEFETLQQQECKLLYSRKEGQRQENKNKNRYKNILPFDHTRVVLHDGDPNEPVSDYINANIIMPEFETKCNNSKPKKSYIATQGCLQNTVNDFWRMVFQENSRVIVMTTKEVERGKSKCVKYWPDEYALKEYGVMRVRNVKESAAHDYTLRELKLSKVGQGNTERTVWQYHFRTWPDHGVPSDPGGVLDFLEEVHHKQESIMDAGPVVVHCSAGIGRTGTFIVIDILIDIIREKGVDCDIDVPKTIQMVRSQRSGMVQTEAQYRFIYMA
Procedure: (§1) We screen illudalogs against a panel of PTPs including PTPRD, as illustrated in FIG. 16. […] Typical experimental conditions are 5-10 nM enzyme, 1-10 μM DiFMUP, and 250 nM inhibitor at 37° C.

[4] = tested on: LAR-PTP subfamily (LAR, PTPRσ, and PTPR^δ); assay: PTP panel screen, LAR-PTP subfamily; format: biochemical, human; conditions: panel also with PTP1B, SHP2, and CD45
Procedure: as §1

PTPRD [5] = target: T4, PTPRD (Homo sapiens, UniProt P23468); assay: PTPRD inhibitor screen and IC50 at pH 7.5 and 37° C.; format: biochemical; conditions: 1 μM
T4 construct: We maintain a library of PTP catalytic domains
T4 sequence (P23468 1357-1612): T2 sequence (P23468 1357-1612)

PTPRD [6] = target: T4, PTPRD; assay: as above; format: biochemical; conditions: for PTPRD inhibition in preliminary screening assays: 1 μM and 250 nM; for IC50: pH 7.5 and 37° C.
CD45 = target: T5, CD45 (Homo sapiens, UniProt P08575); assay: PTP panel inhibition, CD45; format: biochemical
T5 construct: We maintain a library of PTP catalytic domains
T5 sequence (P08575 653-912): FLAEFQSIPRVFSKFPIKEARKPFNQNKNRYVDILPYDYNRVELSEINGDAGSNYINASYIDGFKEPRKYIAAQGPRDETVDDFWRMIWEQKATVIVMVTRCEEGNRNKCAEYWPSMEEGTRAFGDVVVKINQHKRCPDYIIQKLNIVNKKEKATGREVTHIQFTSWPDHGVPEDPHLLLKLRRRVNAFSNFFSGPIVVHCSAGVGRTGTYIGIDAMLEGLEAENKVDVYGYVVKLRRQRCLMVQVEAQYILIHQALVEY

LAR [7] = target: T1, LAR; assay: Reversibility of LAR inhibition by dialysis; format: biochemical; parameters: We maintain a library of PTP catalytic domains; conditions: preliminary experiments
[8] = Storage stability as pure substance or in DMSO; format: physicochemical; conditions: room temperature for six months
Text: As discussed above, our new synthetic approach focuses on convergent benzannulation, followed by conversion to the ortho-formyl hydroxy-lactone pharmacophore (FIG. 1). […] LiAlH4, then 6M HCl, ca. 40-70% yields of IAn compounds, which generally precipitate from aqueous acid as white crystalline solids. Intermediates 5 can be isolated for derivatization prior to acidic hydrolysis or advanced directly to the IAn compounds. Optimization is proposed and in progress. Currently, IA1 is produced in ca. 27% yield over 4 steps from 3. We have prepared >35 g of ester 2; ≥100 mg of IA1 and IA3; and ≥10 mg each of the other illudalog compounds of this invention. […] For IA1, we access β-keto amide 1a in two steps from known enal 3.^61 Other β-keto amides 1 provide parallel access to diverse illudalog cores (e.g., 1b→IA3, FIG. 1, bottom). We prepare β-keto ester 2^62 on multigram-scale using CDI-mediated decarboxylative coupling;^63 we have >35 g of 2 in stock. β-Keto ester 2 is the common building block for illudalogs prepared thus far; it comprises functional precursors to the hydroxy-lactone. The benzannulation is adapted from a known naphthol annulation.^64 The final reduction and hydrolysis sequence can be executed as a one-pot operation or with isolation of intermediate 5. Presumably, the deprotonated phenol directs reduction of the ortho-amide over the para-ester. […]

## COc1c(C=O)c2c(c3c1CC(C)(C)C3)C(=O)OC(O)C2 (stereo not drawn) [IA1-6OMe]
LAR [1]; 100 μM inhibitor, pH 6.5, 22 degrees Centigrade
  selectivity for LAR compared to other PTPs: more selective for LAR
LAR [1]; LAR, standard assays
  inhibitory activity in standard phosphatase assays: inhibit
  initial thermodynamic binding affinity K1: too weak
  kinetic covalent ligation rate kinact: too fast
LAR [1]; read-out: IC50 (LAR), standard assays, pH 6.5 and 22° C.
  IC50: 55000 ± 6000 nM
PTPRδ [2]
  potency and selectivity for PTPR^δ over other LAR-PTPs: potent and selective for PTPR^δ over LAR and PTPR^δ
PTPRδ [3]
  inhibition of PTPRδ activity: inhibit

## CC1(C)CCc2c(c(O)c(C=O)c3c2C(=O)OC(O)C3)C1 (stereo not drawn) [IA2-8Me2]
SHP2
  inhibition at 0.25 µM: > 50%
[4]; listed as 15
  potency and selectivity for the LAR subfamily: most potent and is selective for the LAR subfamily

## CC1(C)CCc2c(O)c(C=O)c3c(c2C1)C(=O)OC(O)C3 (stereo not drawn) [IA2-9Me2]
[4]; listed as 16
  potency and selectivity for the LAR subfamily: different selectivity profile within the LAR subfamily

## CCOc1c(C=O)c2c(c3ccccc13)C(=O)OC(O)C2 (stereo not drawn) [IA3-6OEt]
PTPRD [5]
  PTPRD inhibitory activity on rescreening: lower inhibitory activity

## COc1c(C=O)c2c(c3ccccc13)C(=O)OC(O)C2 (stereo not drawn) [IA3-6OMe]
PTPRD [5]
  PTPRD inhibitory activity on rescreening: lower inhibitory activity

## O=Cc1c2c(c3ccc(Br)cc3c1O)C(=O)OC(O)C2 (stereo not drawn) [IA3-8Br]
PTPRD [6]
  PTPRD inhibition in preliminary screening assays: potent PTPRD inhibitors

## C#Cc1ccc2c3c(c(C=O)c(O)c2c1)CC(O)OC3=O (stereo not drawn) [IA3-8C2H]
PTPRD [6]
  PTPRD inhibition in preliminary screening assays: potent PTPRD inhibitors

## O=Cc1c2c(c3cc(F)c(F)cc3c1O)C(=O)OC(O)C2 (stereo not drawn) [IA3-89F]
PTPRD [6]
  IC50: 51 ± 5 nM

## CC1(C)Cc2c(O)c(C=O)c3c(c2C1)C(=O)OC(O)C3 (stereo not drawn) [illudalic acid, reference compound]
LAR [1]; LAR, standard assays
  inhibitory activity in standard phosphatase assays: active; also recorded: inhibit
PTPRD [6]
  IC50: 90 ± 14 nM
CD45
  inhibition of CD45 activity: inhibited
LAR [7]
  recovery of enzyme activity by dialysis: enzyme activity cannot be recovered by dialysis
PTPRδ [3]
  inhibition of PTPRδ activity: inhibit
[8]
  stability of NMR sample in DMSO: unchanged
